# In patent US7666996B2, “Casein derived peptides and uses thereof” (priority 2000, dated 2010):
# What was measured:
# [1] = tested on: Non-Obese Diabetic (NOD) mice; experiment: Glucosuria in Non-Obese Diabetic (NOD) mice; assay type: in vivo
# Procedure: Juvenile (Type I, IDDM) diabetes in Non-Obese Diabetic (NOD) mice:
# Peptides derived from natural casein: NOD mice are a commonly used model for research of autoimmune disease and human Juvenile Diabetes. Six week old female NOD mice received either one or two injections per week of 100 μg of peptides derived from natural casein, for a total of 5 or 10 treatments. Control mice received no treatment. The severity of disease was determined according to glucosuria, which was measured using Combi test sticks [Gross, D. J. et al (1994), Diabetology, 37:1195]. Results were expressed as the percent of glucosuria-free mice in each sample over a 365-day period.
# Synthetic peptides derived from casein: In another experiment, 6 week old female NOD mice received one injection per week of 100 μg of Synthetic peptides derived from casein for a total of 5 treatments. Control mice received no treatment. Results were expressed as the number of healthy mice in the various treated groups.
# [2] = tested on: murine bone marrow progenitor cells; experiment: CFU-GEMM colonies from murine bone marrow cells, differential counts; assay type: cell-based
# Procedure: Proliferation of megakaryocytes in multipotential colonies (CFU-GEMM) from murine bone marrow cells: Primary bone marrow cells (1×10^5 per ml) from 8-12 week-old C3H/HeJ […], 95% air, at 37° C. The medium, appropriate for the growth of multipotential colonies (CFU-GEMM), contained 1% BSA (Sigma), 10^−4 M thioglycerol (Sigma), 2.8×10^−4 M human transferrin (TF, Biological industries, Israel), 10% WEHI-CM as a source of IL-3 and 2 units per ml erythropoietin (rhEPO, R & D Systems, Minneapolis). […] They were picked with a micropipette, cytocentrifuged and stained with May-Grunwald-Giemsa for differential counts. At least 700 cells were counted for each preparation.
# Proliferation of Dendritic cells in CFU-GEMM: Multipotent (CFU-GEMM) colonies grown from primary bone marrow cells as described for the assay of megakaryocyte proliferation above were collected, stained and counted for dendritic cells. At least 700 cells were counted for each preparation.
# Proliferation of Plasma cells in CFU-GEMM: Multipotent (CFU-GEMM) colonies grown from primary bone marrow cells as described for the assay of megakaryocyte proliferation above were collected, stained and counted for plasma cells. At least 700 cells were counted for each preparation.
# Proliferation of Macrophage Cells in CFU-GEMM: Multipotent (CFU-GEMM) colonies grown from primary bone marrow cells as described for the assay of megakaryocyte proliferation above were collected, stained and counted for macrophage cells. At least 700 cells were counted for each preparation.
# Proliferation of Red Blood Cells in CFU-GEMM: Multipotent (CFU-GEMM) colonies grown from primary bone marrow cells as described for the assay of megakaryocyte proliferation above were collected, stained and counted for red blood cells. At least 700 cells were counted for each preparation.
# Proliferation of Polymorphonuclear Cells (PMN) in CFU-GEMM: Multipotent (CFU-GEMM) colonies grown from primary bone marrow cells as described for the assay of megakaryocyte proliferation above were collected, stained and counted for polymorphonuclear cells. […]
# [3] = tested on: murine bone marrow progenitor cells; experiment: CFU-GM colony formation with IL-3 and G-CSF, murine bone marrow; assay type: cell-based
# Procedure: Cells were scored in the macroscopic colonies grown from murine bone marrow cells prepared similarly to the CFU-GEMM colonies previously described. Cells were incubated with hematopoietic factors cytokine (IL-3) and colony stimulating factor (G-CSF), and 25 μg or more of synthetic peptides derived from casein (J), representing amino acids 1-22 of α-S1 casein, or 30-4, representing amino acids 1-6 of α-S1 casein, for 14 days, individually or in combination. The stimulation of colony formation (CFU) is expressed as the number of myeloid colonies in 10^5 plated MNCs.
# Synthetic peptides derived from αS1-casein stimulate Granulopoietic (GM) cell proliferation in CFU-GM: As mentioned hereinabove, formation and expansion of CFU-GM (Granulocyte and Macrophage) colonies, and CFU-GEMM (Granulocyte, Erythroid, Macrophage and Megakaryocyte) colonies constitute one of the early events in the differentiation of hematopoietic progenitor cells in the bone marrow.
# [4] = tested on: human bone marrow progenitor cells; experiment: CFU-GM colony formation with IL-3 and G-CSF, human bone marrow; assay type: cell-based; conditions: 100 μg/ml, 14 days
# Procedure: Cells were scored in the macroscopic colonies grown from human bone marrow cells prepared similarly to the CFU-GEMM colonies previously described. Cells were incubated with hematopoietic factors cytokine (IL-3) and colony stimulating factor (G-CSF), and 25 μg or more of synthetic peptides derived from casein: peptide J, representing amino acids 1-22 of α-S1 casein. Exposure of the human bone marrow progenitor cells to peptides derived from casein was for 14 days. Stimulation of colony formation (CFU) is expressed as the number of myeloid colonies in 10^5 plated MNCs.
# A similar effect of synthetic peptides derived from αS1 casein was observed on the proliferation of granulocytes and macrophages from human bone marrow progenitor cells. […] (FIG. 20). Thus, synthetic peptides derived from αS1 casein or combinations thereof are effective in augmenting the effect of granulopoitic factors such as G-CSF on bone marrow hematpoietic progenitor cell differentiation and expansion.
# [5] = tested on: irradiated, bone marrow transplanted mice; experiment: Leukocyte and platelet reconstitution in bone marrow transplant recipient mice; assay type: in vivo; conditions: for enhancement of platelet counts over control mice: 3×10^6 cells, 10 days post-transplantation
# Procedure: Leukocyte and platelet reconstitution in bone marrow transplant recipient Mice: BALB/c mice were sub-lethally irradiated at a source to skin distance of 70 cm, dosage of 50 cGy per minute, for a total of 600 cGy. The irradiated mice were […] casein, synthetic peptides derived from casein (13-26 amino acids, see Table 3 above), or human serum albumin (controls), following a double-blinded protocol. Leukocyte reconstitution was determined according to cell count in peripheral blood collected at indicated intervals from 6 to 12 days post treatment. Platelet reconstitution was determined by cell count in blood collected from the retro orbital plexus, into EDTA-containing vials, at indicated intervals from day 6 to day 15 post treatment. […]
# In a third series of experiments, the mice were irradiated (800 cGy), reconstituted and injected intraperitoneally with 1.0 mg synthetic peptides derived from casein (peptides 3a and 4P, representing the first 6 and 12 amino acids of the N terminus of αS1 casein, respectively—see Table 3 above) daily, on days 4, 5, 6 and 7 post-transplantation. Platelet reconstitution was assayed at 10 and 12 days post-transplantation.
# In a fourth series of experiments, F1 mice were irradiated (750 cGy), reconstituted with syngeneic bone marrow, and injected intravenously 24 hours later with 1 mg per mouse of synthetic peptides derived from casein representing amino acids 1-22 of the N terminus of αS1 casein. In addition, 2 (two) groups of mice were treated each with a natural fraction of αS1 casein position 1-23, and a fraction of peptides derived from natural κ-casein, representing amino acid coordinates 106-169 of κ-casein (SEQ ID NO: 27). WBC counts were conducted on days 5, 7, 10 and 12 post-transplantation.
# human bone marrow cells = experiment: Colony assays in cultured human bone marrow cells (CFU-GM, MK, BFU-E, CFU-GEMM); assay type: cell-based; conditions: 100 μg/ml synthetic peptide in the presence of EPO
# Procedure: Proliferation of megakaryocyte- and erythroid forming cells from human bone marrow and cord blood cells: A sample of bone marrow from an apparently healthy human being was processed by density gradient separation using Histopaque-107 (Sigma Diagnostics) to obtain a purified population of mononuclear cells (MNC). Colony assays were performed in a plating medium containing final concentrations of 0.92% methyl cellulose (4000 centripase powder, Sigma Diagnostic), rehydrated in Iscoves modified Dulbecco's medium containing 36 mM sodium bicarbonate (Gibco), 30% fetal bovine serum (FBS) (Hyclone), 0.292 mg/ml glutamine, 100 units per ml penicillin and 0.01 mg per ml streptomycin (Biological Industries, Beit Haemek). Cord blood from normal births was collected and prepared as mentioned above.
# Colony assay medium containing 10^5 MNC per ml was plated in triplicate wells within a 24 well tissue culture plate (Greiner), 0.33 ml per well. The cultures were incubated at 37° C. in 5% CO2, 95% air and 55% relative humidity with or without peptides derived from natural casein or synthetic peptides derived from casein, at the indicated concentrations. Plates were scored after 14 days for colonies containing more than 50 cells. […]
Sequence,"Healthy/Total (sugar not detected in urine) ([1]; female NOD mice, 100 μg synthetic peptide once weekly for 5 weeks, evaluated after 25 weeks)","Urine Sugar ([1]; individual healthy NOD mice, after 25 weeks)","effect on Early (E.MK) megakaryocyte formation (in words) ([2]; 25 μg or more, 14 days)","increase in total megakaryocyte proliferation over controls ([2]; synthetic peptide, FIG. 21)","myelocyte formation with G-CSF and IL-3 (in words) ([3]; 25 μg or more, 14 days)",increase in proliferation of granulocytes ([3]; in the presence of G-CSF),enhancement of granulopoietic stimulating effect of G-CSF (myelocyte formation) [4],"peripheral white blood cell counts, day 10 ([5]; BALB/c, 600 cGy, 1 mg per mouse intraperitoneal, control 1.67)","peripheral white blood cell counts, day 12 ([5]; BALB/c, 600 cGy, 1 mg per mouse intraperitoneal, control 4.64)","white blood cell reconstitution (in words) ([5]; F1 mice, 750 cGy, 1 mg i.v., days 5 and 7 post-reconstitution)","enhancement of platelet counts over control mice ([5]; F1 mice, 750 cGy, 1 mg i.v.)","enhancement of platelet counts over control mice ([5]; F1 mice, 750 cGy, 1 mg i.v., listed as amino acids 1-22 of αS1-casein)",proliferation of erythroid cell precursors (BFU-E colonies) vs EPO alone (human bone marrow cells)
"RPKHPIKHQGLPQEVLNENLLR [J, synthetic peptide, amino acids 1-22 of α-S1 casein]",3/5,Negative,dramatic effect,57%,synergistic increase,25%,> 50%,2.74 ×10^6 cells per ml,5.20 ×10^6 cells per ml,dramatic enhancement,> 25%,34%,–
"RPKHPIKHQGLPQEVLNE [F, synthetic peptide, N-terminal 18 amino acids of αS1 casein]",–,–,–,–,–,–,–,–,–,–,–,–,one and one-half
